Experiments:
[1] = test system: human ovary cancer cell strain IGROV1; test: Cell growth inhibition test (MTT), IGROV1; assay type: cell-based; conditions: IGROV-1, 72 h, IGROV1, 3 days culture, read-out: concentration exhibiting anti-cell effect (GI50)
Summary of the method: (§1)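 MTT read-out at 540 nm after 4 h formazan formation gives living cell count following 3-day compound exposure at 37° C, 5% CO2. Seeding: 5000 AN3CA, 1000 IGROV1, 5000 HT29 cells/well. Growth rate T/C % = 100×[(B−C)/(A−C)], with C taken before dosing; GI50 = concentration giving 50% growth.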

[2] = test system: human colon cancer cell strain HT29; test: Cell growth inhibition test (MTT), HT29; assay type: cell-based; conditions: HT-29, 72 h, HT29, 3 days culture, read-out: concentration exhibiting anti-cell effect (GI50)
Summary of the method: as §1

PI3Kα = PI3Kα (Homo sapiens, UniProt P42336); test: PI3K kinase activity inhibition assay; assay type: biochemical; conditions: Kinase-Glo Plus ATP detection, read-out: IC50 against PI3K
Sequence of PI3Kα (P42336 whole entry, species assumed): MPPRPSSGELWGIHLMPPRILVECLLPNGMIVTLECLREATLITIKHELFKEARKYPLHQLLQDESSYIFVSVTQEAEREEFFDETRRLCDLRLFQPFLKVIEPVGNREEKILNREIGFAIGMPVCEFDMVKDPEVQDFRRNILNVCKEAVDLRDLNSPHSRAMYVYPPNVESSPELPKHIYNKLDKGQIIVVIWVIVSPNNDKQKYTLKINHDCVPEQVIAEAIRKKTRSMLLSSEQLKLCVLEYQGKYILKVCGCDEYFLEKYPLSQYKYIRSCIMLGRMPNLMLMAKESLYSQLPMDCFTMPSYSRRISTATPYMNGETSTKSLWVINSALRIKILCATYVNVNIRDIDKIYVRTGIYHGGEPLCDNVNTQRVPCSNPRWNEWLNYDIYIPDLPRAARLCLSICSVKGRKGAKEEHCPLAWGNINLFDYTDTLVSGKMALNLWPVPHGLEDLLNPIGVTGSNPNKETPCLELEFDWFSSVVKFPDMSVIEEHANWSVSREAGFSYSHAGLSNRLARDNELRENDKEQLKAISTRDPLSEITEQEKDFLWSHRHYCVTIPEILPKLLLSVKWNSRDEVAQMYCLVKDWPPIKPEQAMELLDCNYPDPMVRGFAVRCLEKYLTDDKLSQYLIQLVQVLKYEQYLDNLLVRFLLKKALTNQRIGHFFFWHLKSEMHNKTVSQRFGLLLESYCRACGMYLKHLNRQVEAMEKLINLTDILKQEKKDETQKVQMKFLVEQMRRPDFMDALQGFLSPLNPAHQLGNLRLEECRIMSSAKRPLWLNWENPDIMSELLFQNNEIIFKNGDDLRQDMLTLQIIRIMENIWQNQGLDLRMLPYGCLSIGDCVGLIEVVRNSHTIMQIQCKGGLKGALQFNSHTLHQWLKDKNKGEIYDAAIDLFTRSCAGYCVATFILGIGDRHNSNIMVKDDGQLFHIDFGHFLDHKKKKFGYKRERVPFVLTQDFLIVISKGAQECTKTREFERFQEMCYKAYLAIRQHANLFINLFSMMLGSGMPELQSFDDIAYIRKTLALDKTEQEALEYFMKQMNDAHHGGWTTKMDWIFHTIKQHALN
Sequence of PI3Kα (P27986 whole entry partner, species assumed): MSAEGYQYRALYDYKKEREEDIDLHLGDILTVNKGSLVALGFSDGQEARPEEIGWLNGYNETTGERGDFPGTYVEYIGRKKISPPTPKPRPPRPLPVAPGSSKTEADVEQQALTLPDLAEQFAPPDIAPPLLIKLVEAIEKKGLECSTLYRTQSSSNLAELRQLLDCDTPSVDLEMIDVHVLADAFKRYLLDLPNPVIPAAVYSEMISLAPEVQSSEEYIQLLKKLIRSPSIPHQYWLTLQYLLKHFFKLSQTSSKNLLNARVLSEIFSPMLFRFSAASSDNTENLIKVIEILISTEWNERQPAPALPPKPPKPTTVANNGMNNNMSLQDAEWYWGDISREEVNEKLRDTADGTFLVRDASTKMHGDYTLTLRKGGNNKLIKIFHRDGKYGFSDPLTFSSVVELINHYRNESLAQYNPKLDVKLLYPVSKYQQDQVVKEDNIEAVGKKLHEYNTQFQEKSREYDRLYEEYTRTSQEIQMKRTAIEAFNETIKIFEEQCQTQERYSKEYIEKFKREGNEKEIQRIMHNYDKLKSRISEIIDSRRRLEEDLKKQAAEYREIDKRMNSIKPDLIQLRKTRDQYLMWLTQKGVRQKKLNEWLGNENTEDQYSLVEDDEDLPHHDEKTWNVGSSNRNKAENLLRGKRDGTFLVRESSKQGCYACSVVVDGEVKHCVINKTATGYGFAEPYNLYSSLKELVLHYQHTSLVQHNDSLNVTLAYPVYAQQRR
Summary of the method: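 PI3Kα (50 nM solution) was reacted with 30 μM ATP and 45 μM PIP2 solutions, each in HEPES pH 7.4 with MgCl2 and DTT, for 2 h at room temperature. Remaining ATP was measured by Kinase-Glo Plus luminescence, and inhibition was derived from ATP consumed. IC50 was taken from curve fitting of the serial dilutions.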

[3] = test system: human endometrial cancer cell strain AN3CA; test: Cell growth inhibition test (MTT), AN3CA; assay type: cell-based; conditions: AN3-CA, 72 h, 3 days culture, read-out: concentration exhibiting anti-cell effect (GI50)
Summary of the method: as §1

| GI50 [1] [µM] | GI50 [2] [µM] | IC50 (PI3Kα) [µM] | GI50 [3] [µM] | Structure (SMILES) |
| --- | --- | --- | --- | --- |
| ≤ 5 | ≤ 5 | < 0.01 | ≤ 5 | CNc1ncc(-c2nc(N3CCOCC3)c3nc(N4CCN(S(C)(=O)=O)[C@@H](C)C4)n(CC(F)(F)F)c3n2)cn1 [Example 105, N-Methyl-5-{8-[(3S)-3-methyl-4-(methylsulfonyl)piperazin-1-yl]-6-morpholin-4-yl-9-(2,2,2-trifluoroethyl)-9H-purin-2-yl}pyrimidin-2-amine] |
| ≤ 5 | ≤ 5 | 0.01 to 0.02 | ≤ 5 | CNc1ncc(-c2nc(N3CCOCC3)c3nc(N4CCN(S(C)(=O)=O)CC4)n(CC(F)(F)F)c3n2)cn1 [Example 11, N-Methyl-5-{8-[4-(methylsulfonyl)piperazin-1-yl]-6-morpholin-4-yl-9-(2,2,2-trifluoroethyl)-9H-purin-2-yl}pyrimidin-2-amine] |
| ≤ 5 | ≤ 5 | 0.01 to 0.02 | ≤ 5 | CC(C)Cn1c(N2CCN(C(=O)[C@H](C)O)[C@@H](C)C2)nc2c(N3CCOCC3)nc(-c3cnc(N)nc3)nc21 [Example 104, (2S)-1-{(2S)-4-[2-(2-Aminopyrimidin-5-yl)-9-isobutyl-6-morpholin-4-yl-9H-purin-8-yl]-2-methylpiperazin-1-yl}-1-oxopropan-2-ol] |
| ≤ 5 | ≤ 5 | 0.01 to 0.02 | ≤ 5 | CC(C)Cn1c(N2CCN(C=O)CC2)nc2c(N3CCOCC3)nc(-c3cnc(N)nc3)nc21 [Example 90, 4-[2-(2-Aminopyrimidin-5-yl)-9-isobutyl-6-morpholin-4-yl-9H-purin-8-yl]piperazine-1-carboaldehyde] |
| ≤ 5 | ≤ 5 | < 0.01 | ≤ 5 | CC(=O)N1CCN(c2nc3c(N4CCOCC4)nc(-c4cnc(N)nc4)nc3n2CC2CC2)C[C@@H]1C [Example 96, 5-{8-[(3S)-4-Acetyl-3-methylpiperazin-1-yl]-9-(cyclopropylmethyl)-6-morpholin-4-yl-9H-purin-2-yl}pyrimidin-2-amine] |
| ≤ 5 | ≤ 5 | < 0.01 | ≤ 5 | CC(=O)N1CCN(c2nc3c(N4CCOCC4)nc(-c4cnc(N)nc4)nc3n2CC(F)(F)F)CC12CC2 [Example 119, 5-[8-(4-Acetyl-4,7-diazaspiro[2.5]oct-7-yl)-6-morpholin-4-yl-9-(2,2,2-trifluoroethyl)-9H-purin-2-yl]pyrimidin-2-amine] |
| ≤ 5 | ≤ 5 | 0.01 to 0.02 | ≤ 5 | C[C@H](O)C(=O)N1CCN(c2nc3c(N4CCOCC4)nc(-c4cnc(N)nc4)nc3n2CC2CC2)C[C@H]1C [Example 95, (2S)-1-{(2R)-4-[2-(2-Aminopyrimidin-5-yl)-9-(cyclopropylmethyl)-6-morpholin-4-yl-9H-purin-8-yl]-2-methylpiperazin-1-yl}-1-oxopropan-2-ol] |
| ≤ 5 | ≤ 5 | < 0.01 | ≤ 5 | CC(C)Cn1c(N2CCN(C(=O)C[C@@H](C)O)[C@H](C)C2)nc2c(N3CCOCC3)nc(-c3cnc(N)nc3)nc21 [Example 84, (2R)-4-{(2R)-4-[2-(2-Aminopyrimidin-5-yl)-9-isobutyl-6-morpholin-4-yl-9H-purin-8-yl]-2-methylpiperazin-1-yl}-4-oxobutan-2-ol] |
| ≤ 5 | ≤ 5 | < 0.01 | ≤ 5 | C[C@H](O)C(=O)N1CCN(c2nc3c(N4CCOCC4)nc(-c4cnc(N)nc4)nc3n2CC2CC2)CC1 [Example 88, (2S)-1-{4-[2-(2-Aminopyrimidin-5-yl)-9-(cyclopropylmethyl)-6-morpholin-4-yl-9H-purin-8-yl]piperazin-1-yl}-1-oxopropan-2-ol] |
| ≤ 5 | ≤ 5 | 0.01 to 0.02 | ≤ 5 | C[C@@H](O)C(=O)N1CCN(c2nc3c(N4CCOCC4)nc(-c4cnc(N)nc4)nc3n2CC2CC2)C[C@@H]1C [Example 113, (2R)-1-{(2S)-4-[2-(2-Aminopyrimidin-5-yl)-9-(cyclopropylmethyl)-6-morpholin-4-yl-9H-purin-8-yl]-2-methylpiperazin-1-yl}-1-oxopropan-2-ol] |
| ≤ 5 | ≤ 5 | < 0.01 | ≤ 5 | CC(C)Cn1c(N2CCN(C=O)[C@H](C)C2)nc2c(N3CCOCC3)nc(-c3cnc(N)nc3)nc21 [Example 100, (2R)-4-[2-(2-Aminopyrimidin-5-yl)-9-isobutyl-6-morpholin-4-yl-9H-purin-8-yl]-2-methylpiperazine-1-carboaldehyde] |
| ≤ 5 | ≤ 5 | 0.01 to 0.02 | ≤ 5 | C[C@H](O)C(=O)N1CCN(c2nc3c(N4CCOCC4)nc(-c4cnc(N)nc4)nc3n2CC2CC2)C[C@@H]1C [Example 92, (2S)-1-{(2S)-4-[2-(2-Aminopyrimidin-5-yl)-9-(cyclopropylmethyl)-6-morpholin-4-yl-9H-purin-8-yl]-2-methylpiperazin-1-yl}-1-oxopropan-2-ol] |
| ≤ 5 | ≤ 5 | 0.01 to 0.02 | ≤ 5 | CS(=O)(=O)N1CCN(c2nc3c(N4CCOCC4)nc(-c4cnc(N)nc4)nc3n2CC(F)F)CC1 [Example 64, 5-{9-(2,2-Difluoro-ethyl)-8-[4-(methylsulfonyl)piperazin-1-yl]-6-morpholin-4-yl-9H-purin-2-yl}pyrimidin-2-amine] |
| ≤ 5 | ≤ 5 | < 0.01 | ≤ 5 | CC(C)Cn1c(N2CCN(C(=O)C[C@H](C)O)[C@@H](C)C2)nc2c(N3CCOCC3)nc(-c3cnc(N)nc3)nc21 [Example 85, (2S)-4-{(2S)-4-[2-(2-Aminopyrimidin-5-yl)-9-isobutyl-6-morpholin-4-yl-9H-purin-8-yl]-2-methylpiperazin-1-yl}-4-oxobutan-2-ol] |
| ≤ 5 | ≤ 5 | 0.01 to 0.02 | ≤ 5 | CC(C)Cn1c(N2CCN(S(C)(=O)=O)CC2)nc2c(N3CCOCC3)nc(-c3cnc(N)nc3)nc21 [Example 1, 5-{9-Isobutyl-8-[4-(methylsulfonyl)piperazin-1-yl]-6-morpholin-4-yl-9H-purin-2-yl}pyrimidin-2-amine] |
| ≤ 5 | ≤ 5 | < 0.01 | ≤ 5 | C[C@H](O)C(=O)N1CCN(c2nc3c(N4CCOCC4)nc(-c4cnc(N)nc4)nc3n2CC(F)(F)F)C[C@H]1C [Example 110, (2S)-1-{(2R)-4-[2-(2-Aminopyrimidin-5-yl)-6-morpholin-4-yl-9-(2,2,2-trifluoroethyl)-9H-purin-8-yl]-2-methylpiperazin-1-yl}-1-oxopropan-2-ol] |
| ≤ 5 | ≤ 5 | 0.01 to 0.02 | ≤ 5 | CC(=O)N1CCN(c2nc3c(N4CCOCC4)nc(-c4cnc(N)nc4)nc3n2CC(C)C)C[C@H]1C [Example 99, 5-{8-[(3R)-4-Acetyl-3-methylpiperazin-1-yl]-9-isobutyl-6-morpholin-4-yl-9H-purin-2-yl}pyrimidin-2-amine] |
| ≤ 5 | ≤ 5 | 0.01 to 0.02 | ≤ 5 | CC(C)Cn1c(N2CCN(C(=O)C[C@@H](C)O)[C@@H](C)C2)nc2c(N3CCOCC3)nc(-c3cnc(N)nc3)nc21 [Example 83, (2R)-4-{(2S)-4-[2-(2-Aminopyrimidin-5-yl)-9-isobutyl-6-morpholin-4-yl-9H-purin-8-yl]-2-methylpiperazin-1-yl}-4-oxobutan-2-ol] |
